Here are results for three compounds from patent US11220500B2, “Crystalline form of Valbenazine dibesylate” (Apotex Inc., priority 2018, dated 2022).

Data set [1] is described as follows: physchem. The conditions noted are these: 37 °C, thermodynamic from solid, Solubility expressed as Valbenazine free base.
Procedure: (§1) The solubility of Valbenazine free base, Valbenazine ditosylate and Valbenazine dibesylate were measured in buffer solutions (pH 1.2 to 6.8) in a temperature-controlled water bath at 37° C. with stirring using magnetic stir bars at 325 rpm (rotations per minute). Each Valbenazine sample was weighed and transferred into a 20 mL vial and then 10 mL of buffer was added. The samples were shaken for 1 minute. If all sample dissolved, more sample was added until a saturated solution was obtained. The samples were then equilibrated at 37° C. with stirring using magnetic stir bars at 325 rpm for 24 hours. After equilibration, samples were filtered through 0.45 μm PVDF filters and further diluted with a methanol/water (60/40 v/v) solution. Samples were analyzed by HPLC against known concentrations of standards. The pH values of the solutions were measured after completion of testing.
The nature of data set [2]: Form stability by PXRD of uncapped samples in a 27° C./60% RH stability chamber. Type of data set: physicochemical. The protocol:
Valbenazine dibesylate Form APO-I can be characterized by a PXRD diffractogram comprising, among other peaks, characteristic peaks, expressed in degrees 2θ (±0.2°), at 6.3°, 9.8° and 15.6°. Preferably, the PXRD diffractogram further comprises at least three peaks, expressed in degrees 2θ (±0.2°), selected from the group consisting of 5.3°, 7.7°, 8.5°, 12.5°, 14.0°, 16.8°, 17.1°, 17.8°, 18.6° and 19.7°. More preferably, the PXRD diffractogram further comprises peaks, expressed in degrees 2θ (±0.2°), at 5.3°, 7.7°, 8.5°, 12.5°, 14.0°, 16.8°, 17.1°, 17.8°, 18.6° and 19.7°.
Data were acquired on a PANanalytical X'Pert Pro MPD diffractometer with fixed divergence slits and an X'Celerator detector. The diffractometer was configured in Bragg-Brentano geometry; data was collected over a 2θ range of 3° to 40° using CuKα radiation at a power of 40 mA and 45 kV. CuKβ radiation was removed using a divergent beam nickel filter. A step size of 0.017°, and a step time of 40 seconds, was used. Raw data were evaluated using X'Pert High Score Plus. Samples were rotated to reduce preferred orientation effects. Samples were lightly ground prior to analysis.

The conditions of data set [3]: 24 h.
Procedure: as §1
Data set [4] is described as follows: Comparative solubility of Valbenazine forms in buffer solutions (pH 1.2 to 6.8) at 37° C., HPLC. The settings on record: equilibrated 24 hours.
Procedure: as §1

Values after ≈ are worked out from the molar mass of the structure shown. Where a name gives a salt, the structure may show the parent alone. Read-outs that look alike come from different tables or passages of the source. A value given as a limit tells only on which side of the number the result lay.

As a reminder, the solubility is the dissolved amount per volume that the medium holds. High values mean much dissolved substance, low ones little dissolved substance. Compound `COc1cc2c(cc1OC)[C@H]1C[C@@H](OC(=O)[C@@H](N)C(C)C)[C@H](CC(C)C)CN1CC2` [Dibesylate salt, Valbenazine dibesylate] showed a solubility at 24 h in data set [1] (pH 4.5, aqueous buffer) of 18.5 mg/mL. The Form stability entry in data set [2] (open exposure to 27° C./60% RH for at least 5 months) is reported as “exhibits form stability”. Besides, in data set [2] (uncapped samples, 27° C./60% RH stability chamber, at least 20 weeks), the “Change in the crystalline form (PXRD)” value was “no change in the crystalline form”. Besides, in data set [3], the “Difference of aqueous solubility from that of Valbenazine ditosylate of the approved drug product” value was no more than 10 % units. Besides, the “Solubility expressed as Valbenazine free base” value in data set [3] (pH 1.2) stood at 22.4 mg/mL; in data set [3] (pH 6.8), 8.1 mg/mL.
Regarding `COc1cc2c(cc1OC)[C@H]1C[C@@H](OC(=O)[C@@H](N)C(C)C)[C@H](CC(C)C)CN1CC2` [Free base, (2R,3R,11bR)-1,3,4,6,7,11b-hexahydro-9,10-dimethoxy-3-(2-methylpropyl)-2H-benzo[a]quinolizin-2-yl-L-valine ester], in data set [1] (pH 1.2, simulated gastric fluid), the concentration in solution (solubility at 24 h) was 21.3 mg/mL (≈ 50.9 mM). Besides, the “Solubility expressed as Valbenazine free base” value in data set [3] (pH 4.5) is 21.6 mg/mL (≈ 51.6 mM); in data set [3] (pH 6.8), 1.2 mg/mL (≈ 2.87 mM).
As to “Valbenazine ditosylate [Ditosylate salt]”, the “Solubility expressed as Valbenazine free base” value in data set [4] (buffer pH 1.2, 37° C.) worked out at 20.9 mg/mL; in data set [4] (buffer pH 4.5, 37° C.), 17.7 mg/mL; in data set [4] (buffer pH 6.8, 37° C.) it was 7.6 mg/mL.
